From US9434711B2 (Janssen Pharmaceutica, NV, priority 2007, dated 2016)

How the values were obtained:
Male Sprague Dawley rats [1] = experiment: Reversal of Icilin-Induced Behaviors in Rats; type: in vivo; settings: Rattus norvegicus, po, 1 h, 30 mg/kg p.o., 1 h post-icilin
Method: Male Sprague Dawley rats (225-450 g, Charles River Labs, n=4-6/treatment) were used to evaluate the ability of selected compounds of the formula (I) to reverse icilin-induced “wet-dog” shakes. Icilin was administered in PEG-400 or 10% solutol/H2O, at 1.0 or 3.0 mg/kg, i.p. and spontaneous “wet-dog” shakes (WDS) were counted 10-20 minutes post-icilin. […] Results are presented as a percent inhibition of shakes, which was calculated as [1-(test compound WDS count/vehicle WDS count)]×100.

canine TRPM8 [2] = biological target: T1, canine TRPM8 (Canis lupus familiaris, UniProt Q1A7N1); experiment: In Vitro Canine TRPM8 Functional Assay (Ca2+ fluorescence, icilin activation); type: cell-based; settings: for IC50: HEK293 cells stably expressing canine TRPM8, icilin activation, eight-point dose-response, read-out: IC50; for inhibition at 0.5 µM: compound at 0.5 μM, read-out: % Inh @ 0.5; for inhibition at 0.5 µM / inhibition at 0.2 µM / % Inh @ 0.2 (μM): canine TRPM8, icilin activation; for inhibition at 0.2 µM / % Inh @ 0.2 (μM): compound at 0.2 μM; for inhibition at 0.2 µM: read-out: % Inh @ 0.2
Summary of the method: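 HEK293 cells stably expressing canine TRPM8 loaded with Calcium 3 dye; compound added and Ca2+ fluorescence monitored 5 min before icilin at a final level giving ~80% maximal response, read on FLIPR or FDSS. EC50 or IC50 from eight-point dose-response, quadruplicate wells per point.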

Male Sprague Dawley rats [3] = experiment: Inhibition of Icilin-Induced "Wet-Dog" Shakes in Rats; type: in vivo, rat; settings: Na salt form; for ED50: Rattus norvegicus, po
Method: Male Sprague Dawley rats (220-450 g, Charles River Labs, n=6-9/treatment) were used to evaluate the ability of selected compounds of the formula (I) to block icilin-induced “wet-dog” shakes (WDS). Compounds of the formula (I) were administered in an appropriate vehicle, such as hydroxypropyl-β-cyclodextrin (HPβCD), methocellulose, 10% Solutol, or H2O, or the like, by the appropriate route, i.p. or p.o., 30-120 minutes before icilin. Icilin was administered in PEG-400 or 10% solutol/H2O, at 1.0 or 3.0 mg/kg, i.p. and spontaneous “wet-dog” shakes were counted 10-20 minutes post-icilin. Results are presented as a percent inhibition of shakes, which was calculated as [1-(test compound WDS count/vehicle WDS count)]×100.

Male Sprague Dawley rats [4] = experiment: Chronic Constriction Injury (CCI)-Induced Model of Neuropathic Pain, Acetone-Induced Hypersensitivity; type: in vivo, rat; settings: Na salt form; for inhibition in vivo at 30 mg/kg / Percent Inhibition: 30 mg/kg p.o.
From the text: Male Sprague Dawley rats (225-450 g; n=5-8/treatment) were used to evaluate the ability of selected compounds of the formula (I) to reverse CCI-induced cold hypersensitivity. Four loose ligatures of 4-0 chromic gut were surgically placed around the left sciatic nerve under inhalation anesthesia as described by Bennett et al (Bennett G J, Xie Y K. Pain 1988, 33(1): 87-107). Fourteen to 35 days following CCI surgery, subjects were placed in elevated observation chambers containing wire mesh floors and five applications of acetone (0.05 mL/application separated by approximately 5 minutes) were spritzed onto the plantar surface of the paw using a multidose syringe. An abrupt withdrawal or lifting of the paw was considered a positive response. The number of positive responses was recorded for each rat over the five trials. Following baseline withdrawal determinations, compounds of formula (I) are administered in an appropriate vehicle, such as hydroxypropyl-β-cyclodextrin (HP β CD), methylcellulose, Methocel, 10% Solutol, or H2O, or the like, by the appropriate route, i.p. or p.o. […] Results are presented as a percent inhibition of […], which was calculated for each subject as [1−(test compound withdrawals/pre-test withdrawals)]×100 and then averaged by treatment.

canine TRPM8 [5] = biological target: T1, canine TRPM8; experiment: TRPM8 Patch Clamp Assays (whole-cell, menthol or cold activation); type: cell-based; settings: cold stimulation
Method: For patch clamp experiments, HEK293 cells are stably transfected with canine TRPM8 and cultured in DMEM supplemented with 10% fetal bovine serum, 100 units/ml penicillin, 100 μg/ml streptomycin and 1 mg/ml G418. Cells are maintained at 37° C. and in 5% CO2.
The extracellular solution contains (in mM): NaCl, 132; EGTA, 1; KCl, 5.4; MgCl2, 0.8; HEPES, 10; glucose, 10; pH=7.4. Recordings are performed using the conventional whole-cell patch clamp technique, 1-2 days after plating cells onto glass coverslips at densities appropriate for single cell recording. Currents are amplified by a patch clamp amplifier and filtered at 2 kHz (Axopatch 200B, Molecular Devices, Union City, Calif.). Menthol (100 μM) is applied to the cell at 0.5 ml/min via a gravity-fed perfusion system. Recordings involving menthol activation are performed at 22° C.
In experiments where temperatures are varied, temperature ramps are generated by cooling the perfusate in an in-line cooler (Model SC-20, Warner Instruments, Hamden, Conn.) controlled by a temperature controller (Model CL-100, Warner Instruments). The temperature in the vicinity of the recorded cell is measured with a custom-made miniature thermo-microprobe connected to a monitoring thermometer (Model TH-8, Physitemp, Clifton, N.J.), and sampled using Digidata 1322A and pClamp 9.0 (Molecular Devices), as are the currents concurrently measured in the whole-cell patch clamp mode. The current is continuously sampled (at 100 Hz) at a holding potential of −60 mV.
Compounds of the formula (I) are diluted from 10 mM DMSO stocks (stored at −20° C.) into an extracellular solution either containing 100 μM menthol or subjected to cooling. Increasing concentrations of a compound are applied to a cell in a cumulative manner and concentration-dependent responses are measured after steady-state activation is achieved by either 100 μM menthol or cooling to 10° C. A saturating concentration of a reference antagonist is applied at the end of an experiment (either in the presence of 100 μM menthol or 10° C. temperature) to establish the baseline from which all the other measurements are subtracted.
Percentage inhibition by a compound is calculated as follows:
100×(1−Icomp/I0); where Icomp and I0 are steady-state current amplitudes in either the presence or absence of a concentration of compounds of the formula (I).

[6] = 0.5 h, HPbCD, 30 min pre-icilin
[7] = dose 30 p.o., HPbCD, 30 min pre-icilin
[8] = dose 30 p.o., HPbCD, 60 min pre-icilin
[9] = dose 10 p.o., HPbCD, 60 min pre-icilin

T1 sequence (Q1A7N1 1-1104): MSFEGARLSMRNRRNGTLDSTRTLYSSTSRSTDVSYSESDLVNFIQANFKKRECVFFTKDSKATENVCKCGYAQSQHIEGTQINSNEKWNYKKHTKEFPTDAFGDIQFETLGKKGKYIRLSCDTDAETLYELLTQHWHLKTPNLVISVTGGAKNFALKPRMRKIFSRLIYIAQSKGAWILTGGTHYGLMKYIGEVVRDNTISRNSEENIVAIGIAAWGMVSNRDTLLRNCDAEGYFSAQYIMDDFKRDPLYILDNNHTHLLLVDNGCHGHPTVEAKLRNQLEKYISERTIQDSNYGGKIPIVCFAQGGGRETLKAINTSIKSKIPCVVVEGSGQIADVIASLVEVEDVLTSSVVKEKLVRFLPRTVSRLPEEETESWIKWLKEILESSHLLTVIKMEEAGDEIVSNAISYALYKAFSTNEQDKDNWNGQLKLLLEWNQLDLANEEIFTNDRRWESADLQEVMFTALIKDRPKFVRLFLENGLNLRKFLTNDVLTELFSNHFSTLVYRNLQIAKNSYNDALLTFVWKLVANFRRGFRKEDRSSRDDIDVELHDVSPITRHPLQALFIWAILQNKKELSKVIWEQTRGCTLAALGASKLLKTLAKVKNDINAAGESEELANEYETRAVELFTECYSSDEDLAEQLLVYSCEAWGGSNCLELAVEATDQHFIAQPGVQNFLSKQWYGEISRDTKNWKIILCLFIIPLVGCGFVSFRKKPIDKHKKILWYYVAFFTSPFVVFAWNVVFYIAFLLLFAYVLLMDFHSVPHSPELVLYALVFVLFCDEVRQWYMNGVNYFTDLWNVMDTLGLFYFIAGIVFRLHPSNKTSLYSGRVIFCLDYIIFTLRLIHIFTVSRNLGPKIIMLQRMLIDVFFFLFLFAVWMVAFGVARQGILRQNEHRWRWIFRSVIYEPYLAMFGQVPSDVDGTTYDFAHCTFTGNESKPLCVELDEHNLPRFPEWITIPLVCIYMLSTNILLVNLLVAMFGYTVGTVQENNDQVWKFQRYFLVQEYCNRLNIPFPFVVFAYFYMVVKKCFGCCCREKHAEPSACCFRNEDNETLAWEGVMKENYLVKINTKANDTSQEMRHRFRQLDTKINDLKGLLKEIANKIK

SMILES: Cc1c(N(Cc2ccc(F)c(F)c2)S(=O)(=O)c2cn(C)cn2)sc2ccccc12 [Compound 2, N-(3,4-Difluoro-benzyl)-N-(3-methyl-benzo[b]thiophen-2-yl)-1-methyl-1H-imidazole-4-sulfonamide]
- inhibition in vivo at 30 mg/kg (Male Sprague Dawley rats [1]): 18%
- IC50 (canine TRPM8 [2]): 16.3 nM
- inhibition at 0.5 µM (canine TRPM8 [2]): 99%

SMILES: Cc1c(N(Cc2ccc(OC(F)(F)F)cc2)S(=O)(=O)c2cccnc2)sc2ccccc12 [Compound 13, N-(3-Methyl-benzo[b]thiophen-2-yl)-N-(4-trifluoromethoxy-benzyl)-pyridine-3-sulfonamide]
- inhibition in vivo at 30 mg/kg (Male Sprague Dawley rats [1]): 28%
- IC50 (canine TRPM8 [2]): 3 nM
- inhibition at 0.5 µM (canine TRPM8 [2]): 97%

SMILES: O=C(O)c1ccc(S(=O)(=O)N(CCC(F)(F)F)c2sc3ccccc3c2Br)cc1 [Compound 271, N-(3-Bromo-benzo[b]thiophen-2-yl)-N-(3,3,3-trifluoro-propyl)-4-carboxy-benzenesulfonamide]
- ED50 (Male Sprague Dawley rats [3]; 0.5 h, Water, 30 min pre-icilin): 5.7 mg/kg
- inhibition at 0.2 µM (canine TRPM8 [2]): 98%
- inhibition in vivo at 10 mg/kg (Male Sprague Dawley rats [4]; Rattus norvegicus, po, 1 h, 10 mg/kg p.o., HPbCD, pretreatment 1 hr, read-out: Percent Inhibition): 24%
- inhibition in vivo at 100 mg/kg (Male Sprague Dawley rats [4]; Rattus norvegicus, po, 1 h, 100 mg/kg p.o., HPbCD, pretreatment 1 hr, read-out: Percent Inhibition): 56%

SMILES: CCCCN(c1sc2ccccc2c1Br)S(=O)(=O)c1ccc(C(=O)O)cc1 [Compound 272, N-(3-Bromo-benzo[b]thiophen-2-yl)-N-(butyl)-4-carboxy-benzenesulfonamide]
- ED50 (Male Sprague Dawley rats [3]; [6]): 22 mg/kg
- IC50 (canine TRPM8 [2]): 6.2 nM
- inhibition at 0.2 µM (canine TRPM8 [2]): 97%
- inhibition in vivo at 30 mg/kg (Male Sprague Dawley rats [4]; Rattus norvegicus, po, 1 h, HPbCD, pretreatment 1 hr, read-out: Percent Inhibition): 31%

SMILES: O=C(O)c1ccc(S(=O)(=O)N(CC2CC2)c2sc3ccccc3c2Br)cc1 [Compound 273, N-(3-Bromo-benzo[b]thiophen-2-yl)-N-(cyclopropylmethyl)-4-carboxy-benzenesulfonamide]
- ED50 (Male Sprague Dawley rats [3]; [6]): 53 mg/kg
- IC50 (canine TRPM8 [2]): 18 nM
- inhibition at 0.2 µM (canine TRPM8 [2]): 96%
- inhibition in vivo at 30 mg/kg (Male Sprague Dawley rats [4]; Rattus norvegicus, po, 0.5 h, HPbCD, pretreatment 0.5 hr, read-out: Percent Inhibition): 49%

SMILES: CCS(=O)(=O)N(CCN1CCOCC1)c1sc2ccccc2c1C(C)O (stereo not drawn) [Compound 284, N-(3-(1-Hydroxyethyl)benzo[b]thiophen-2-yl)-N-(2-morpholinoethyl)-ethanesulfonamide]
- IC50 (canine TRPM8 [5]): 8 nM
- inhibition at 0.003 µM (canine TRPM8 [5]; 0.003 μM): 24%
- inhibition at 0.01 µM (canine TRPM8 [5]; 0.01 μM): 71%
- inhibition at 0.2 µM (canine TRPM8 [2]): 15%

SMILES: O=C(O)c1ccc(S(=O)(=O)N(CCCCC(F)(F)F)c2sc3ccccc3c2Br)cc1 [Compound 395, N-(3-Bromo-benzo[b]thiophen-2-yl)-N-(5,5,5-trifluoro-pentyl)-4-carboxy-benzenesulfonamide]
- ED50 (Male Sprague Dawley rats [3]; 1 h, Water, 60 min pre-icilin): 7.6 mg/kg
- IC50 (canine TRPM8 [2]): 3 nM
- inhibition at 0.2 µM (canine TRPM8 [2]): 101%
- inhibition in vivo at 30 mg/kg (Male Sprague Dawley rats [4]; Rattus norvegicus, po, 2 h, Water, pretreatment 2 hr, read-out: Percent Inhibition): 23%

SMILES: CCCCN(c1sc2ccccc2c1C)S(=O)(=O)c1ccc(C(=O)[O-])cc1.[Na+] [Compound 398, Sodium, N-(Butyl)-N-(3-methylbenzo[b]thiophen-2-yl)-4-carboxy-benzenesulfonamide]
- % Inhibition (Male Sprague Dawley rats [3]; [7]): 7%
- IC50 (canine TRPM8 [2]): 6 nM
- % Inh @ 0.2 (μM) (canine TRPM8 [2]): 101%

SMILES: Cc1c(N(CCC2CC2)S(=O)(=O)c2ccc(C(=O)[O-])cc2)sc2ccccc12.[Na+] [Compound 400, Sodium, N-(2-Cyclopropylethyl)-N-(3-methylbenzo[b]thiophen-2-yl)-4-carboxy-benzenesulfonamide]
- % Inhibition (Male Sprague Dawley rats [3]; [7]): 84%
- IC50 (canine TRPM8 [2]): 5 nM
- % Inh @ 0.2 (μM) (canine TRPM8 [2]): 102%
- Percent Inhibition (Male Sprague Dawley rats [4]; Water, pretreatment 1 hr): 40%
- Percent Inhibition (Male Sprague Dawley rats [4]; Water, pretreatment 3 hr): 25%

SMILES: Cc1c(N(CCC(F)(F)F)S(=O)(=O)c2ccc(C(=O)[O-])cc2)sc2ccccc12.[Na+] [Compound 409, Sodium, N-(3-Methylbenzo[b]thiophen-2-yl)-N-(3,3,3-trifluoro-propyl)-4-carboxy-benzenesulfonamide]
- % Inhibition (Male Sprague Dawley rats [3]; [7]): 16%
- IC50 (canine TRPM8 [2]): 10 nM
- % Inh @ 0.2 (μM) (canine TRPM8 [2]): 101%

SMILES: O=S(=O)(c1ccc(-c2nnn[nH]2)cc1)N(CCCC(F)(F)F)c1sc2ccccc2c1Br [Compound 429]
- % Inhibition (Male Sprague Dawley rats [3]; [7]): 41%
- % Inhibition (Male Sprague Dawley rats [3]; [8]): 36%
- IC50 (canine TRPM8 [2]): 17 nM
- % Inh @ 0.2 (μM) (canine TRPM8 [2]): 93%

SMILES: O=C(O)c1ccc(S(=O)(=O)N(CCC2CC2)c2sc3ccccc3c2Cl)cc1 [Compound 479]
- % Inhibition (Male Sprague Dawley rats [3]; [8]): 77%
- IC50 (canine TRPM8 [2]): 8 nM
- % Inh @ 0.2 (μM) (canine TRPM8 [2]): 100%

SMILES: CC(C)(O)c1c(N(CCC(F)(F)F)S(=O)(=O)c2ccc(C(=O)[O-])cc2)sc2ccccc12.[Na+] [Compound 505, Sodium, N-(3-(1-Hydroxy-1-methyl-ethyl)-benzo[b]thiophen-2-yl)-N-(3,3,3-trifluoro-propyl)-4-carboxy-benzenesulfonamide]
- % Inhibition (Male Sprague Dawley rats [3]; [8]): 72%
- IC50 (canine TRPM8 [2]): 24 nM
- % Inh @ 0.2 (μM) (canine TRPM8 [2]): 98%
- Percent Inhibition (Male Sprague Dawley rats [4]; HPbCD, pretreatment 1 hr): 11%

SMILES: CC(C)(O)c1c(N(CCC2CC2)S(=O)(=O)c2ccc(C(=O)[O-])cc2)sc2ccccc12.[Na+] [Compound 657, Sodium, N-(2-Cyclopropyl-ethyl)-N-(3-(1-hydroxy-1-methyl-ethyl)-benzo[b]thiophen-2-yl)-4-carboxy-benzenesulfonamide]
- % Inhibition (Male Sprague Dawley rats [3]; [9]): 32%
- IC50 (canine TRPM8 [2]): 7.5 nM
- % Inh @ 0.2 (μM) (canine TRPM8 [2]): 101%

SMILES: CC(C)(O)c1c(N(CCCCC(F)(F)F)S(=O)(=O)c2ccc(C(=O)[O-])cc2)sc2ccccc12.[Na+] [Compound 658, Sodium, N-(3-(1-Hydroxy-1-methyl-ethyl)-benzo[b]thiophen-2-yl)-N-(5,5,5-trifluoro-pentyl)-4-carboxy-benzenesulfonamide]
- % Inhibition (Male Sprague Dawley rats [3]; [9]): 63%
- IC50 (canine TRPM8 [2]): 4.3 nM
- % Inh @ 0.2 (μM) (canine TRPM8 [2]): 101%
